Legend:
S. aureus FtsZ [1] = molecular target: T1, S. aureus FtsZ (Staphylococcus aureus, UniProt P0A031); assay: Light scattering assay of FtsZ polymerization; format: biochemical; conditions: for inhibition of polymerization in the presence of Triton X-100: 0.01% Triton X-100, berberine 200 and 500 µM, compound 2 10 and 25 µM
T1 construct: made in house; host or cells: E. coli BL21(DE3)
T1 sequence (P0A031 1-390): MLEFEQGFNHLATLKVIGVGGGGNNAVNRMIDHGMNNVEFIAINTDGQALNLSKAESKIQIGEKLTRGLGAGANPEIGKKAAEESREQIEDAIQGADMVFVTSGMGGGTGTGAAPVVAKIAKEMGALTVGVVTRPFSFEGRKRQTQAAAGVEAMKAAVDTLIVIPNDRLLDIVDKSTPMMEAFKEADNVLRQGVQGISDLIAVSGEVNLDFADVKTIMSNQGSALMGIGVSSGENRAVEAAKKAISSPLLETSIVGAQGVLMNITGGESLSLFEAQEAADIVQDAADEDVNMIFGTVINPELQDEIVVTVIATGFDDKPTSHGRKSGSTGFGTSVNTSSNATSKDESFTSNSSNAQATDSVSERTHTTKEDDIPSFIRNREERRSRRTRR
Description: (§1) E. coli BL21(DE3) cells were transformed with the pRSET-A-S vector carrying S. aureus FtsZ with a 6-histidine tag attached at its N-terminus under the control of a T7 promoter. […] When the OD600 reached 0.8, protein expression was induced with 0.4 mM isopropyl-β-D-thiogalactopyranoside (IPTG) for 4 h. Cells were harvested by centrifugation at 9000 rpm for 20 min at 4°C. The cell pellet was resuspended in 20 mL of solubilization buffer (50 mM Tris-HCl, 150 mM NaCl, 1 mM PMSF and 1 mM EDTA, pH 7.4) and then lysed with 1 mg/mL of lysozyme. The mixture was incubated for 1 h on ice. The cells were disrupted by sonication and the crude lysate obtained was centrifuged at 13,000 rpm for 1 h at 4°C. The supernatant containing 6-histidine tagged S. aureus FtsZ was collected and loaded onto a nickel charged HiTrap chelating column pre-equilibrated with starting buffer (20 mM sodium phosphate buffer, 0.5 M NaCl, pH 7.4). The column was then washed with 8 column volumes of the starting buffer to remove the unbound proteins, and the histidine-tagged enzyme was eluted by a linear gradient of 0−0.2 M imidazole. Fractions containing S. aureus FtsZ were pooled, buffer-exchanged with 20 mM NH4HCO3 (pH 8.0) at 4°C, lyophilized, and stored at −20°C. A stock solution of S. aureus FtsZ for the subsequent bioassay was prepared from the lyophilized powder.
The light scattering assay was performed using a protocol adapted from the literature. The polymerization and depolymerization of recombinant S. aureus FtsZ was measured using 90° light scattering in a thermostatically (37°C) controlled fluorescence spectrometer (Perkin Elmer, USA). Both excitation and emission wavelengths were set to 600 nm with a slit width of 2.5 nm. S. aureus FtsZ (6 µM) in 50 mM of MOPS buffer (pH 6.5) was incubated with vehicle (1% DMSO) or different concentrations of the test compound for 10 min at 25°C. 50 mM KCl and 10 mM MgCl2 were then added to establish a baseline. After 8 min, a final concentration of 1 mM GTP was added at the last fraction and the increase in light scattering was measured for an additional 2000s. The rate and extent of polymerization were measured. Appropriate blanks were subtracted from all experimental data. Moreover, in order to rule out unselective inhibition by formation of aggregates, control experiments with 0.01% (v/v) Triton X-100 from a freshly prepared 1% (v/v) stock solution were performed for berberine and compound 2 [40], [41]. Reported results are the average of three independent experiments.

S. aureus FtsZ [2] = molecular target: T1, S. aureus FtsZ; assay: Transmission electron microscopy of FtsZ polymers; format: biochemical; conditions: FtsZ 12 µM, TEM
Description: as §1, with “powder. […]” for “powder.”

[3] = system: GFP-tagged FtsZ in E. coli JM109 WM647; assay: Z-ring visualization in E. coli cells; format: cell-based; conditions: 48 µM compound, 4 h at 37°C
Description: A culture of E. coli JM109 WM647 containing the IPTG-inducible plasmid for the overexpression of green fluorescence protein (GFP)-tagged FtsZ was grown in LB medium supplemented with 30 µg/mL of chloramphenicol. After overnight incubation, a sample of the culture was diluted to 1% in the LB medium containing different concentrations of the test compound and 40 µM of IPTG. After 4 h incubation at 37°C, the E. coli cells were fixed, harvested and resuspended in PBS buffer containing 0.25% of agarose. 10 µL of sample mixture were added to a pretreated microscopic slide with 0.1% (w/v) poly-L-lysine and visualized using a fluorescence microscope at 60× oil immersion magnification with a standard FITC filter set. The images were captured using an Olympus Bio Imaging Navigator FSX 100 microscope.

[4] = system: B. subtilis strain 168 cells; assay: Bacterial morphology and membrane staining studies; format: cell-based; conditions: 4 µM compound
Description: The B. subtilis strain 168 cells were grown in LB medium. The cultures at an A600 of 0.01 from an overnight culture were inoculated in the same medium containing different concentrations of the test compounds and grown at 37°C for 4 h. The cells for morphology studies were harvested and resuspended in 100 µL of PBS (phosphate buffered saline) buffer containing 0.25% agarose. For membrane staining, the B. subtilis cells were further incubated with 1.6 µM of FM 4–64 for an additional 30 min at 37°C without shaking before harvested and resuspended in 100 µL PBS buffer containing 0.25% agarose. 10 µL of the suspension mixture were then placed on a microscopic slide pretreated with 0.1% (w/v) poly-L-lysine and the morphology of the bacterial cells was observed under a phase-contrast optical microscope at 40× magnification. The images were captured using an Olympus Bio Imaging Navigator FSX 100 microscope.

Structure (SMILES)	inhibition at 200 µM (S. aureus FtsZ [1]; 200 µM compound, FtsZ 6 µM, 1 mM GTP, light scattering)	inhibition of polymerization in the presence of Triton X-100 (S. aureus FtsZ [1])	reduction of the thickness of the bundles of FtsZ protofilaments (S. aureus FtsZ [2]; 8.8 µM compound)	Z-ring formation / localization of GFP-tagged FtsZ [3]	reduction of the thickness of the bundles of FtsZ protofilaments (S. aureus FtsZ [2]; 4 µM compound)	inhibition of S. aureus FtsZ polymerization at increasing concentrations (S. aureus FtsZ [1]; 10 µM, 25 µM and 50 µM compound)	inhibition at 50 µM (S. aureus FtsZ [1]; 50 µM compound, FtsZ 6 µM, 1 mM GTP, light scattering)	cell length of B. subtilis ([4]; 4 h at 37°C, compared to untreated cells)	perturbation of the cell membrane (FM 4-64 staining) ([4]; B. subtilis 168, compared to untreated cells)
COc1ccc2cc3[n+](cc2c1OC)CCc1cc2c(cc1-3)OCO2 [Berberine, Berberine chloride]	~30%	maintained	–	–	–	–	–	–	–
COc1ccc2cc3[n+](cc2c1OCCCOc1ccccc1)CCc1cc2c(cc1-3)OCO2 [Compound 1]	–	–	60%	–	–	–	–	–	–
COc1ccc2cc3[n+](cc2c1OCCCOc1ccc(Cl)cc1)CCc1cc2c(cc1-3)OCO2 [Compound 2]	–	maintained	–	caused mislocalization of the FtsZ protein	70%	strongly inhibited the S. aureus FtsZ polymerization in a dose-dependent manner	~70%	significantly increased	did not induce any detectable perturbation
